Source: the Kinase Knowledgebase extract (Sharma et al. 2016)

Each compound was assayed against PIK3CG (human) (UniProt P48736) (assay: Assessment of PIK3CG Kinase Activity).
PIK3CG (human), sequence (P48736 whole entry, looked up): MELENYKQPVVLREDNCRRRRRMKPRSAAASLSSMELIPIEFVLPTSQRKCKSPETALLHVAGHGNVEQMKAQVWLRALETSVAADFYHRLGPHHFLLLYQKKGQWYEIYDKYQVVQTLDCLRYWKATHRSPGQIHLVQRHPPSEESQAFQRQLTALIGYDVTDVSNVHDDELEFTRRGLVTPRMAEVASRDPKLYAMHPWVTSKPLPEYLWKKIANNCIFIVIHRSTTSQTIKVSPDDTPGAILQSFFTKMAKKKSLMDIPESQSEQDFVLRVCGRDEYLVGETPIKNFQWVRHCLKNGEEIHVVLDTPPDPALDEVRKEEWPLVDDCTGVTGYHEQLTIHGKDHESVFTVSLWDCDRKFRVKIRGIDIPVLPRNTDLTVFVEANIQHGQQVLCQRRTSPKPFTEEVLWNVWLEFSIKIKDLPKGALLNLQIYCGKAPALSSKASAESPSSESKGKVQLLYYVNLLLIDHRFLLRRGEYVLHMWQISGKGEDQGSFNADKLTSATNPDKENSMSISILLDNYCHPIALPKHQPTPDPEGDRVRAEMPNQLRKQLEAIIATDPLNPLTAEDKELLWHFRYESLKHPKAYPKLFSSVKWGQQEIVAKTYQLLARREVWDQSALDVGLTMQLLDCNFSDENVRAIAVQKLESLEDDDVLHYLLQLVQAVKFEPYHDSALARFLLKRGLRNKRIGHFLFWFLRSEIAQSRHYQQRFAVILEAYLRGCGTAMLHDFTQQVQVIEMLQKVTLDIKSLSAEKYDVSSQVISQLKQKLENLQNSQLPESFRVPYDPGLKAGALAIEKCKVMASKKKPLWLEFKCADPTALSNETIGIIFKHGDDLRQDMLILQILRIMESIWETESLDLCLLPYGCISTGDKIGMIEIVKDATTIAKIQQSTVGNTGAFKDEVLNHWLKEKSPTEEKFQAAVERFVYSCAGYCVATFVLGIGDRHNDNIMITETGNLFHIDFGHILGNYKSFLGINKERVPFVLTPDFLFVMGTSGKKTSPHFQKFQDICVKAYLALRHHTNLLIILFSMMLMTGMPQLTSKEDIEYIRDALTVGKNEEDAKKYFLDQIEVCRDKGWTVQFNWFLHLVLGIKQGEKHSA

| Structure (SMILES) | IC50 [nM] |
| --- | --- |
| CC(=O)Nc1nc2c(s1)-c1c(cnn1-c1ccc(C(=O)N(C)Cc3ccccn3)cc1)CC2 | < 800 |
| O=C(Nc1nc2c(s1)-c1nc(-c3ccccc3)ncc1CC2)N1CCCC1 | < 800 |
| CC(=O)Nc1nc2c(s1)-c1c(cnn1-c1cccc(Cl)c1)CC2 | < 800 |
| CC(=O)Nc1nc2c(s1)-c1c(c(-c3ccco3)nn1-c1ccccc1C)CC2 | < 800 |
| CC(=O)Nc1nc2c(s1)-c1nc(N3CCCC(CNC(C)C)C3)ncc1CC2 (stereo not drawn) | < 800 |
| CC(=O)Nc1nc2c(s1)-c1c(cnn1-c1ccc(C(=O)NC3CCOC3=O)cc1)CC2 (stereo not drawn) | < 800 |
| CC(=O)Nc1nc2c(s1)-c1nc(-c3cccc(Cl)c3)ncc1CC2 | < 800 |
| CC(=O)Nc1nc2c(s1)-c1c(cnn1-c1ccc(CC(=O)N3CCC(O)CC3)cc1)CC2 | < 800 |
| CC(=O)Nc1nc2c(s1)-c1c(cnn1C)CC2 | < 800 |
| CC(=O)Nc1nc2c(s1)-c1nc(-c3ccccc3)ncc1CC2 | < 800 |
| CC(=O)Nc1nc2c(s1)-c1c(cnn1-c1ccc(C(=O)Nc3ccc(NC(C)(C)CN(C)C)cc3)cc1)CC2 | < 800 |
| CC(=O)Nc1nc2c(s1)-c1c(cnn1-c1ccc(C(C)(C)C)cc1)CC2 | < 800 |
| CC(=O)Nc1nc2c(s1)-c1nc(N3CCOCC3)ncc1CC2 | < 800 |
| COC(=O)c1nn(-c2ccc(C)cc2)c2c1CCc1nc(NC(C)=O)sc1-2 | < 800 |
| CC(=O)Nc1nc2c(s1)-c1c(c([C@@H]3CCCO3)nn1-c1ccccc1Cl)CC2 | < 800 |
| CC(=O)Nc1nc2c(s1)-c1c(c(C(=O)N3CCOCC3)nn1-c1ccccc1Cl)CC2 | < 800 |
| CC(=O)Nc1nc2c(s1)-c1c(cnn1-c1ccc(C(=O)N[C@H]3CC[C@H](NC(=O)Cc4ccccc4)CC3)cc1)CC2 | < 800 |
| CC(=O)Nc1nc2c(s1)-c1c(c(-c3ccco3)nn1-c1ccc(C(N)=O)cc1Cl)CC2 | < 800 |
| COc1ccccc1-n1nc(-c2ccco2)c2c1-c1sc(NC(C)=O)nc1CC2 | < 800 |
| CC(=O)Nc1nc2c(s1)-c1c(cnn1-c1ccc(C)cc1)CC2 | < 800 |
| COC(=O)c1nn(-c2ccccc2F)c2c1CCc1nc(NC(C)=O)sc1-2 | < 800 |

| Structure (SMILES) | IC50 [nM] |
| --- | --- |
| CS(=O)(=O)c1cccc(Nc2nc3c(s2)-c2c(cnn2-c2ccccc2)CC3)c1 | < 800 |
| CC(=O)Nc1nc2c(s1)-c1c(cnn1-c1ccc(S(C)(=O)=O)cc1)C2 | < 800 |
| CC(=O)Nc1nc2c(s1)-c1c(cnn1-c1ccc(C(=O)N3CCC(C(N)=O)CC3)cc1)CC2 | < 800 |
| CC(=O)Nc1nc2c(s1)-c1c(cnn1-c1cccc(C(=O)O)c1)CC2 | < 800 |
| CC(=O)Nc1nc2c(s1)-c1nc(-c3ccccc3)ncc1C2 | < 800 |
| CN(C)c1ncc2c(n1)-c1sc(N)nc1CC2 | < 800 |
| CC(=O)Nc1nc2c(s1)-c1nn(C3C=CCCC3)cc1CC2 (stereo not drawn) | < 800 |
| CC(=O)Nc1nc2c(s1)-c1c(cnn1-c1ccc(C(=O)NCc3ccc(C(N)=O)cc3)cc1)CC2 | < 800 |
| O=CNc1nc2c(s1)-c1c(cnn1-c1ccccc1)CC2 | < 800 |
| CC(=O)Nc1nc2c(s1)-c1c(cnn1-c1ccc(C(=O)Nc3ccc(C4CCN(C)CC4)cc3)cc1Cl)CC2 | < 800 |
| CC(=O)Nc1nc2c(s1)-c1c(c(-c3ccccc3)nn1-c1ccccc1Cl)CC2 | < 800 |
| CC(=O)Nc1nc2c(s1)-c1nc(N(CCN(C)C)C(C)=O)ncc1CC2 | < 800 |
| CC(=O)Nc1nc2c(s1)-c1c(c([C@H]3CCCO3)nn1-c1ccccc1Br)CC2 | < 800 |
| CC(C)c1nn(-c2ccccc2Cl)c2c1CCc1nc(NC(N)=O)sc1-2 | < 800 |
| CC(=O)Nc1nc2c(s1)-c1c(cnn1-c1ccc(C(=O)N[C@@H](CCS(C)(=O)=O)C(N)=O)cc1Cl)CC2 | < 800 |
| CC(=O)Nc1nc2c(s1)-c1c(cnn1-c1ccc(C(=O)NCc3ccccc3O)cc1)CC2 | < 800 |
| CC(=O)Nc1nc2c(s1)-c1nn(-c3ccccc3Cl)c(-c3cn(C)cn3)c1CC2 | < 800 |
| COC(=O)c1nn(-c2ccccc2Cl)c2c1CCc1nc(NC(C)=O)sc1-2 | < 800 |
| CC(=O)Nc1nc2c(s1)-c1c(cnn1-c1ccc(C(=O)NCCCCCCNC(=O)c3ccccc3)cc1)CC2 | < 800 |
| CC[C@H](NC(=O)c1ccc(-n2ncc3c2-c2sc(NC(C)=O)nc2CC3)c(Cl)c1)C(N)=O | < 800 |
| CC(=O)Nc1nc2c(s1)-c1c(cnn1-c1ccc(CC(=O)N3CCCC3c3ccccn3)cc1)CC2 (stereo not drawn) | < 800 |

| Structure (SMILES) | IC50 [nM] |
| --- | --- |
| O=C(CCN1CCCCC1)Nc1nc2c(s1)-c1c(cnn1-c1ccccc1)CC2 | < 800 |
| CC(=O)Nc1nc2c(s1)-c1nc(N3CCCOCC3)ncc1CC2 | < 800 |
| CC(=O)Nc1nc2c(s1)-c1c(c(C)nn1-c1ccccc1C(F)(F)F)CC2 | < 800 |
| CC(=O)Nc1nc2c(s1)-c1nn(C(N)=O)cc1CC2 | < 800 |
| CC(=O)Nc1nc2c(s1)-c1c(c(C(C)C)nn1-c1ccccc1Br)CC2 | < 800 |
| CC(=O)Nc1nc2c(s1)-c1c(cnn1-c1ccc(CC(=O)N3CCN(c4ccncc4)CC3)cc1)CC2 | < 800 |
| CC(=O)Nc1nc2c(s1)-c1c(cnn1-c1ccc(CC(=O)NCCC3CCCN3C)cc1)CC2 (stereo not drawn) | < 800 |
| CC(=O)Nc1nc2c(s1)-c1c(c(C(=O)N(C)C)nn1-c1ccccc1Cl)CC2 | < 800 |
| CC(=O)Nc1nc2c(s1)-c1c(cnn1-c1ccc(C(=O)N3CCCCC3CO)cc1)CC2 (stereo not drawn) | < 800 |
| CC(=O)Nc1nc2c(s1)-c1c(cnn1-c1ccc(C(=O)NCc3ccnn3C)cc1)CC2 | < 800 |
| O=C(NCCN1CCOCC1)Nc1nc2c(s1)-c1c(cnn1-c1ccccc1)CC2 | < 800 |
| CC(=O)Nc1nc2c(s1)-c1nn(C(=O)c3ccccc3Cl)cc1CC2 | < 800 |
| CC(=O)Nc1nc2c(s1)-c1c(cnn1-c1ccc(C(=O)N3CCC(NC(=O)Cc4ccccc4)CC3)cc1)CC2 | < 800 |
| CC(=O)Nc1nc2c(s1)-c1c(cnn1-c1ccc(CC(=O)N(C)CC(=O)N(C)C)cc1)CC2 | < 800 |
| CC(=O)Nc1nc2c(s1)-c1c(cnn1-c1ccc(C(=O)N[C@@H](Cc3cccnc3)C(N)=O)cc1Cl)CC2 | < 800 |
| CN(C)C(=O)Nc1nc2c(s1)-c1c(cnn1-c1ccccc1)CC2 | < 800 |
| CC(=O)Nc1nc2c(s1)-c1c(cnn1-c1ccc(C(=O)N3CCCC(=O)CC3)cc1)CC2 | < 800 |
| CC(=O)Nc1nc2c(s1)-c1c(cnn1-c1ccc(C(=O)N3CCN(c4ccncc4)CC3)cc1)CC2 | < 800 |
| C#CCNC(=O)Cc1ccc(-n2ncc3c2-c2sc(NC(C)=O)nc2CC3)cc1 | < 800 |
| O=C(Nc1nc2c(s1)-c1nc(-c3ccccc3)ncc1CC2)N1CCCCC1 | < 800 |

Now from value to compound:

| IC50 [nM] | Structure (SMILES) |
| --- | --- |
| < 800 | CC(=O)Nc1nc2c(s1)-c1c(c(-c3ccccc3)nn1-c1ccccc1C)CC2 |
| < 800 | CC(=O)Nc1nc2c(s1)-c1c(cnn1-c1ccc(C(=O)N(C)Cc3ccccc3)cc1)CC2 |
| < 800 | CC(=O)Nc1nc2c(s1)-c1c(cnn1-c1ccc(CC(=O)N(C)CC(C)O)cc1)CC2 (stereo not drawn) |
| < 800 | CC(=O)Nc1nc2c(s1)-c1c(c(C(C)C)nn1-c1ccc(C(=O)O)cc1Cl)CC2 |
| < 800 | CC(=O)Nc1nc2c(s1)-c1c(cnn1-c1ccc(S(N)(=O)=O)cc1)CC2 |
| < 800 | CC(=O)Nc1nc2c(s1)-c1c(cnn1-c1ccc(CC(=O)N[C@@H]3CCOC3=O)cc1)CC2 |
| < 800 | CC(=O)Nc1nc2c(s1)-c1nn(C(C)=O)cc1CC2 |
| < 800 | CC(=O)Nc1nc2c(s1)-c1c(cnn1-c1ccc(CC(=O)NCc3nc4ccccc4[nH]3)cc1)CC2 |
| < 800 | CC(=O)Nc1nc2c(s1)-c1c(cnn1-c1ccc(C(=O)N[C@H](CCCCNC(=N)N)C(N)=O)cc1Cl)CC2 |
| < 800 | CC(=O)Nc1nc2c(s1)-c1nn(-c3ccccc3Cl)c(-c3ccoc3)c1CC2 |
| < 800 | CN(C)CCN(C)C(=O)Nc1nc2c(s1)-c1c(cnn1-c1ccccc1)C2 |
| < 800 | CC(=O)Nc1nc2c(s1)-c1c(cnn1-c1ccc(C(=O)NCC3OCCO3)cc1)CC2 |
| < 800 | CC(=O)Nc1nc2c(s1)-c1cc(NC(C)C)ccc1CC2 |
| < 800 | CC(=O)Nc1nc2c(s1)-c1c(cnn1-c1ccc(C(=O)N[C@H]3CC[C@@H](N4CCN(CC5CC5)CC4)CC3)cc1)CC2 |
| < 800 | CC(=O)Nc1nc2c(s1)-c1nn(-c3ccccc3C)c(-c3cn(C)cn3)c1CC2 |
| < 800 | CNC(=O)c1ccc(-n2nc(-c3ccco3)c3c2-c2sc(NC(C)=O)nc2CC3)c(Cl)c1 |
| < 800 | CC(=O)Nc1nc2c(s1)-c1nn(C(=O)c3ccc(Cl)cc3)cc1CC2 |
| < 800 | CC(=O)Nc1nc2c(s1)-c1c(cnn1-c1ccc(S(C)(=O)=O)cc1)CC2 |

| IC50 [nM] | Structure (SMILES) |
| --- | --- |
| < 800 | CNc1ncc2c(n1)-c1sc(NC(C)=O)nc1CC2 |
| < 800 | CC(=O)Nc1nc2c(s1)-c1c(cnn1-c1ccc(CC(=O)NCCCN(C)C)cc1)CC2 |
| < 800 | Cc1ccccc1-c1ncc2c(n1)-c1sc(NC(=O)N(C)C)nc1CC2 |
| < 800 | CC(=O)Nc1nc2c(s1)-c1c(cnn1-c1ccc(C(=O)N[C@H](CC(C)C)C(N)=O)cc1Cl)CC2 |
| < 800 | CC(=O)Nc1nc2c(s1)-c1c(c(C)nn1-c1ccc(Cl)cc1)CC2 |
| < 800 | CC(=O)Nc1nc2c(s1)-c1c(c(-c3c[nH]cn3)nn1-c1ccccc1Cl)CC2 |
| < 800 | COCc1nn(-c2ccccc2)c2c1CCc1nc(NC(C)=O)sc1-2 |
| < 800 | CC(=O)Nc1nc2c(s1)-c1c(cnn1-c1ccc(CC(=O)N3CCN(C(C)=O)CC3)cc1)CC2 |
| < 800 | CC(=O)Nc1nc2c(s1)-c1c(cnn1-c1ccc(C(=O)N[C@H]3CCc4nc(N)sc4C3)cc1)CC2 |
| < 800 | CN(C)CCCC(=O)Nc1nc2c(s1)-c1c(cnn1-c1ccccc1)C2 |
| < 800 | CC(=O)Nc1nc2c(s1)-c1c(cnn1-c1ccc(C(=O)N[C@H](C(N)=O)c3ccccc3)cc1Cl)CC2 |
| < 800 | CC(=O)Nc1nc2c(s1)-c1c(cnn1-c1ccc(C(=O)NC(C)CO)cc1)CC2 (stereo not drawn) |
| < 800 | CNC(=O)Nc1nn(-c2ccccc2Cl)c2c1CCc1nc(NC(C)=O)sc1-2 |
| < 800 | COCc1nn(-c2ccc(C(=O)N(C)C3CCN(C)CC3)cc2Cl)c2c1CCc1nc(NC(C)=O)sc1-2 |
| < 800 | CC(=O)Nc1nc2c(s1)-c1c(cnn1-c1ccc(CC(=O)N3CCC(CO)CC3)cc1)CC2 |
| < 800 | CC(=O)Nc1nc2c(s1)-c1c(cnn1-c1ccc(C(=O)N(C)CC(C)O)cc1)CC2 (stereo not drawn) |
| < 800 | CN(C)CCCC(=O)Nc1nc2c(s1)-c1c(c(-c3ccccc3)nn1-c1ccccc1Cl)CC2 |
| < 800 | CC(=O)Nc1nc2c(s1)-c1c(cnn1C(C)C)CC2 |
